Consider three molecules from ChEMBL document CHEMBL1146055, “Arylphthalazines. Part 2: 1-(Isoquinolin-5-yl)-4-arylamino phthalazines as potent inhibitors of VEGF receptors I and II” (Bioorg Med Chem Lett, 2006).

In assay [1] the target is Insulin receptor (Homo sapiens) (UniProt P06213). In words: Inhibition of InsR at 10 uM.
The target of assay [2] is Hepatocyte growth factor receptor (Homo sapiens) (UniProt P08581). Description: Inhibition of c-Met at 10 uM.
Assay [3] addresses Epidermal growth factor receptor (Homo sapiens) (UniProt P00533). The conditions noted are these: 10 uM.
Description: Inhibition of EGFR at 10 uM
In assay [4] the target is Vascular endothelial growth factor receptor 2 (Homo sapiens, UniProt P35968). In words: Inhibition of VEGFR2 by HTRF assay.
Chain of Vascular endothelial growth factor receptor 2 (P35968 whole entry): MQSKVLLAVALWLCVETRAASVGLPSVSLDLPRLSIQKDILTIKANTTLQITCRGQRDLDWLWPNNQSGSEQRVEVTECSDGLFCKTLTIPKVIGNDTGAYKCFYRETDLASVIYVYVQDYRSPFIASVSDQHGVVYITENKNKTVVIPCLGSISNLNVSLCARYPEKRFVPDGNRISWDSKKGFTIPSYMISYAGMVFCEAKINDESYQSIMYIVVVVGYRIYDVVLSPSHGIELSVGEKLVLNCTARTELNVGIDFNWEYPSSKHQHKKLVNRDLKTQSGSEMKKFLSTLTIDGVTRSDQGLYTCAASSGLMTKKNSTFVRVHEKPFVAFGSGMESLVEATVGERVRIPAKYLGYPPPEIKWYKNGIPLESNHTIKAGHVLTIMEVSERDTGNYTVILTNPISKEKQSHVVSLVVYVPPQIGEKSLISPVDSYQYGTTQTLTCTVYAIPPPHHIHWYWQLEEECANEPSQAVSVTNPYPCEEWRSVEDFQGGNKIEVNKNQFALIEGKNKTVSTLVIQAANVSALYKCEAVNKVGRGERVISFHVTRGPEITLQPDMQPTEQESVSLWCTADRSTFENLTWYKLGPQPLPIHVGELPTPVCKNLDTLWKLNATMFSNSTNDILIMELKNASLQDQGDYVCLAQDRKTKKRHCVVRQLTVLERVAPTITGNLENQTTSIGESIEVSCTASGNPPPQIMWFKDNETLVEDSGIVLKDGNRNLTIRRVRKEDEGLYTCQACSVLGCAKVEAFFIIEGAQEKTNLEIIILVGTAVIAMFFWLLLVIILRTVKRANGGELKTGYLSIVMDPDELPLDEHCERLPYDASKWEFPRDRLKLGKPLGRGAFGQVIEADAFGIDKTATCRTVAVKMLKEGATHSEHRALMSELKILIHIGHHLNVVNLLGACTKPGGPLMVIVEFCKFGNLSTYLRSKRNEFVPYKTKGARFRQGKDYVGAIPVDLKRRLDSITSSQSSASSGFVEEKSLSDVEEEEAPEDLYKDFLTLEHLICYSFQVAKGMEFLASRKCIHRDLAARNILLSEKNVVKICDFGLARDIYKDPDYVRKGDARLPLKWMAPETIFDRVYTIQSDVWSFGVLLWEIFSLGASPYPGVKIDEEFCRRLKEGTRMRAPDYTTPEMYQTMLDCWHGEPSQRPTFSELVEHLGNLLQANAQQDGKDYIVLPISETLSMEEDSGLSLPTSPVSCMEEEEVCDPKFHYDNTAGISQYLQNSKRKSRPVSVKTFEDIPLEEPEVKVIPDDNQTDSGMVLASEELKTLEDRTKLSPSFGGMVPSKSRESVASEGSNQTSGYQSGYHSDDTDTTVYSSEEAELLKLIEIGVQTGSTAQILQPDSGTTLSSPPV
In assay [5] the target is Receptor-type tyrosine-protein kinase FLT3 (Homo sapiens) (UniProt P36888). Description: Inhibition of FLT3 at 10 uM.
Chain of Receptor-type tyrosine-protein kinase FLT3 (Homo sapiens) (P36888 whole entry): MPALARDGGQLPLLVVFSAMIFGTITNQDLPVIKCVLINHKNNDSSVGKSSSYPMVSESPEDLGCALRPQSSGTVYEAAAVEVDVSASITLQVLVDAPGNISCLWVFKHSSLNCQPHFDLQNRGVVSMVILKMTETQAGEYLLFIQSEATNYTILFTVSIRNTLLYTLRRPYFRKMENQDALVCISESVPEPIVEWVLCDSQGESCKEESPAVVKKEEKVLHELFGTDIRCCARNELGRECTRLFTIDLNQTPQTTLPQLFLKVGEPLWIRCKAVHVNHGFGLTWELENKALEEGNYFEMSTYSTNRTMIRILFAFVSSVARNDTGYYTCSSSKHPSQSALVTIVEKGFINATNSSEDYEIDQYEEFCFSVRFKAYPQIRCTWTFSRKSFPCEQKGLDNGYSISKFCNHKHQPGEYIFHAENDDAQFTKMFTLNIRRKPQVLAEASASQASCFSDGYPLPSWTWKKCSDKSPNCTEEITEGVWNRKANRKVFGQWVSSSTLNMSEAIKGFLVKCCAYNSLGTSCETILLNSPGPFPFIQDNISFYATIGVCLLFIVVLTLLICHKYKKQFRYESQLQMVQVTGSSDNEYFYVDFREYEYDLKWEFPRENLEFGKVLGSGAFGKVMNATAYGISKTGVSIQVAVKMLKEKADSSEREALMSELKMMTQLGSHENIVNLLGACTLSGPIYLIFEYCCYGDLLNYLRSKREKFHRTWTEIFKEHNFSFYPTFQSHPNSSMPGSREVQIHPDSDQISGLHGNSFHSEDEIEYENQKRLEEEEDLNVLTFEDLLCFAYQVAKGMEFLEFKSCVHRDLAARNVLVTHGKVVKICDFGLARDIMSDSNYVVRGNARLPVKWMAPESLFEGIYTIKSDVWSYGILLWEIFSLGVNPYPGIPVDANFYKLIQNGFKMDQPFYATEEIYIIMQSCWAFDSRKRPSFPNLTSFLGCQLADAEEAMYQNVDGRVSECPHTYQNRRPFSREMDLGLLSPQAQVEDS
The target in assay [6] is Insulin-like growth factor 1 receptor (Homo sapiens) (UniProt P08069). In words: Inhibition of IGF1R at 10 uM.

The structures appear in SMILES notation.

Chain of Insulin receptor (Homo sapiens) (P06213 28-758 limits assumed): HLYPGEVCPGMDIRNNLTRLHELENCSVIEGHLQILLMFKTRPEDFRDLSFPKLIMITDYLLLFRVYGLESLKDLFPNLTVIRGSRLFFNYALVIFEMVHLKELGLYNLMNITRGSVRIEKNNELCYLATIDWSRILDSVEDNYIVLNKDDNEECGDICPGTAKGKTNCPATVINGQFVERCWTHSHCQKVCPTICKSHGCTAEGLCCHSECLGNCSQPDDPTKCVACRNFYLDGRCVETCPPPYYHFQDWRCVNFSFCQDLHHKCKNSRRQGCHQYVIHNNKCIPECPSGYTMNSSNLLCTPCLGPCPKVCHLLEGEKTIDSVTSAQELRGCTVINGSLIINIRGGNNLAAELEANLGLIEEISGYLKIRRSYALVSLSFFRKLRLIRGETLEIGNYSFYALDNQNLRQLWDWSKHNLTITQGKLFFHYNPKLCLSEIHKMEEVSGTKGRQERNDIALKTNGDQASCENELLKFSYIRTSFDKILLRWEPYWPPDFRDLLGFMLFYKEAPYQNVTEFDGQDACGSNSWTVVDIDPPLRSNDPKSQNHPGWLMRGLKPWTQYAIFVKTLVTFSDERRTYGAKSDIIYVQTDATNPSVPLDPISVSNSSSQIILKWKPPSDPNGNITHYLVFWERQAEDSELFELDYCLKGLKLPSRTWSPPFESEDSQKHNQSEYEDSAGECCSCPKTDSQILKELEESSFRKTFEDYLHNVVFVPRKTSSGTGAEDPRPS
Chain of Insulin receptor (Homo sapiens) (P06213 763-1382 limits assumed): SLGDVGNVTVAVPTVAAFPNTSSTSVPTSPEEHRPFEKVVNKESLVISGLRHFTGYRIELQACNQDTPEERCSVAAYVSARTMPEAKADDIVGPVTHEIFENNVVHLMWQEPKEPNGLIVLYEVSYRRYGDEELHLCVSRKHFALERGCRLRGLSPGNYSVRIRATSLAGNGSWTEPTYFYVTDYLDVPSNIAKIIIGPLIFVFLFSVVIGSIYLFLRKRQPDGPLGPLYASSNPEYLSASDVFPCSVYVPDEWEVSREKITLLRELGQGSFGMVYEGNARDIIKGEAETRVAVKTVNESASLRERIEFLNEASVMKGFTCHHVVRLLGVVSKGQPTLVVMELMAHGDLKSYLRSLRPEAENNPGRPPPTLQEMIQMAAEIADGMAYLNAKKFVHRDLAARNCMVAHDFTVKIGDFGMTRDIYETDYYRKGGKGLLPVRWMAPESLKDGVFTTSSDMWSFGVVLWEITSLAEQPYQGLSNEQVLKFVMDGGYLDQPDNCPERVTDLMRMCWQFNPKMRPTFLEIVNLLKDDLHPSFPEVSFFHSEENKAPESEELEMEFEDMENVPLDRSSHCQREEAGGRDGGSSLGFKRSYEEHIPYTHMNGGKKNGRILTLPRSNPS
Chain of Epidermal growth factor receptor (Homo sapiens) (P00533 whole entry): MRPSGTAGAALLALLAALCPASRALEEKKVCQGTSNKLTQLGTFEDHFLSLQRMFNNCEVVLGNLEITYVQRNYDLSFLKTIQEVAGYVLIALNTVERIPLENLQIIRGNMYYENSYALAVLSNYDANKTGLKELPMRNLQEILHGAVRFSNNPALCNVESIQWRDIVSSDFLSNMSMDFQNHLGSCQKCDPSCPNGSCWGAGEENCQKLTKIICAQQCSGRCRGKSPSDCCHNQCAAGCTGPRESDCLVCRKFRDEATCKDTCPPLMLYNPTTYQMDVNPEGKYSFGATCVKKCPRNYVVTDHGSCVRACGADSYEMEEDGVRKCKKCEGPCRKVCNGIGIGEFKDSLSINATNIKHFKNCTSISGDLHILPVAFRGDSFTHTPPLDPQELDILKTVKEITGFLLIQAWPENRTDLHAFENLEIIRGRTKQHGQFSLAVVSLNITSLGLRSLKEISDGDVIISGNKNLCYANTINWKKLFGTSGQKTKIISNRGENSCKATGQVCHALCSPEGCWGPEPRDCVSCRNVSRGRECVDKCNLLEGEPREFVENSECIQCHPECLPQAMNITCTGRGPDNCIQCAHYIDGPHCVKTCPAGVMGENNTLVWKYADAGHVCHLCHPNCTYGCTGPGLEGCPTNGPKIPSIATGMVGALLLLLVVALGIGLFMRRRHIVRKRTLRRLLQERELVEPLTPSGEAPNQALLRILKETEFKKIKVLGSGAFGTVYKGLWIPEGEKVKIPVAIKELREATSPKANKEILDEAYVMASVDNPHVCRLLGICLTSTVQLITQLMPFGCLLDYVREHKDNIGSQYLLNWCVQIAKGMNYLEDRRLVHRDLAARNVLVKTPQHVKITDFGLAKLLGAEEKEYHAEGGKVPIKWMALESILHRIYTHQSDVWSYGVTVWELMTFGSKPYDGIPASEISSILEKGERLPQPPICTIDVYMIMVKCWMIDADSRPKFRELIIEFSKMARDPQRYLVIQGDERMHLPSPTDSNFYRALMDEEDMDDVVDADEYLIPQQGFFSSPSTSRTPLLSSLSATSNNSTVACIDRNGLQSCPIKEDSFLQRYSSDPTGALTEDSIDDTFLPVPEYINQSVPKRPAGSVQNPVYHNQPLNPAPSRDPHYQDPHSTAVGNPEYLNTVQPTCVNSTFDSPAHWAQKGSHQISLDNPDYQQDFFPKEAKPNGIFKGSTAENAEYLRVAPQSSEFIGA

Take `Clc1ccc(Nc2nnc(-c3cccc4cnccc34)c3ccccc23)cc1`: the inhibition in assay [1] came to 10%; in assay [2] it was 2%; in assay [3] it was 13%; in assay [5], 33%; in assay [6] it was 25%. Further, in assay [4], 0.048 µM corresponded to half-maximal inhibition (IC50).

Take `Cn1cc(-c2nnc(Nc3ccc(Cl)cc3)c3ccccc23)cn1`: in assay [4], the IC50 is greater than 10 µM.

`Clc1ccc(Nc2nnc(-c3cn[nH]c3)c3ccccc23)cc1` showed a 50% inhibitory concentration (IC50) in assay [4] greater than 10 µM.

What is called inhibition is how much of the control response was suppressed. Lower therefore signals a weak effect. As a reminder, the IC50 is the concentration that inhibits the measured activity by half.
